{"source": "patent US10399966B2", "about": "“Compounds for treatment of trypanosomes and neurological pathogens and uses thereof” (The University of North Carolina at Chapel Hill, priority 2016, dated 2019)", "key": {"[1]": {"assay": "Efficacy PK blood samples, acute model", "type": "in vivo, mouse", "details": "50 mg/kg po b.i.d.", "experimental": "In a model of the acute phase of HAT, five mice infected with T. b. rhodesiense STIB900 were given the test compound at 50 mg/kg po b.i.d.×4 days, beginning 2 days post-infection. Efficacy PK blood samples were collected from three of the five mice prior to dose 7, and at 1 h and 6 h post-dose. Average plasma levels of the test compound were 9.1±7.6 μM (pre-dose), 18.6±7.2 μM (1 h), and 15.0±4.2 μM (6 h). Compound 1 attained 5/5 cures as determined by the absence of detectable parasitemia in any of the treated mice 60 days post-infection (FIG. 1)."}, "Plasmodium falciparum": {"system": "Plasmodium falciparum", "assay": "Antimicrobial activity against Plasmodium falciparum", "type": "cell-based", "details": "Table 1, Plasmodium falciparum"}, "T. b. brucei TREU667": {"system": "T. b. brucei TREU667", "assay": "Mouse efficacy model of chronic T. brucei infection", "type": "in vivo", "details": "50 mg/kg po b.i.d. x 10 days from day 21, no detectable parasitemia through 180 days post-infection, 50 mg/kg", "experimental": "For chronic efficacy, experiments were done in compliance with the University of Washington IACUC approved protocol. According to published procedures, groups of 5 mice were infected with 1×10^4 T. b. brucei (strain TREU667) at day 0 to establish a chronic infection. Treatment began on day 21 post-infection, and mice received 50 mg/kg test compound orally b.i.d. for 10 d (total of 20 doses) in a 200 μL volume of a vehicle composed of Phosal 53 MCT (60%), PEG400 (30%) and EtOH (10%). A control group received vehicle with no compound and another control group received a single intraperitoneal dose of diminazene aceturate at 10 mg/kg in water on day 21. […] Post dosing, parasitemia was monitored via microscopic examination of tail blood slides until 180 days post-infection. Mice were removed from the experiment once parasites were detected in the blood.\nIn a model of the chronic phase of HAT, compound 1 was administered to five mice infected with T. b. brucei TREU667 at 50 mg/kg/po b.i.d.×10 days, beginning 21 days post-infection. […] Efficacy PK blood samples were collected from three of the five mice prior to dose 15, and at 1 h and 6 h post-dose. […] Compound 1 attained 5/5 cures as determined by the absence of detectable parasitemia in any of the treated mice through 180 days post-infection (FIG. 2). […]"}, "[2]": {"assay": "Rat pharmacokinetics, oral administration", "type": "in vivo", "parameters": "AUC(0-inf): unit not given here", "details": "20 mg/kg; for AUC(0-inf) / Cmax / Tmax: rat, in vivo, po", "experimental": "(§1) The pharmacokinetics of compound 1 was tested in rats after intravenous and oral administration. Two rats were administered 5 mg/kg compound 1 intravenously in a vehicle consisting of 7% Tween 80, 3% EtOH, 5% DMSO in saline. Two rats were administered 20 mg/kg compound 1 orally in a vehicle consisting of 5% DMSO, 0.5% Tween 80, 1% methylcellulose in water. The results are shown in Table 4 and FIGS. 3A-3B and 4A-4B."}, "[3]": {"system": "T. b. rhodesiense STIB900", "assay": "Mouse efficacy model of acute T. brucei infection", "type": "in vivo", "details": "50 mg/kg po b.i.d. x 4 days from day 2, no detectable parasitemia 60 days post-infection", "experimental": "For acute efficacy studies in mice, experiments were carried out using the standard operating procedure used by WHO screening centers and done in compliance with the University of Washington Institutional Animal Care and Use Committee (IACUC) approved protocol. […] The test compound was administered by oral gavage at 50 mg/kg every 12 h from day 2 to day 5, for a total of 8 doses in a 200 μL volume of a vehicle consisting of DMSO (5%), Tween 80 (7%), and EtOH (3%) in physiological saline (0.9%) solution. Parasitemia was monitored via microscopic analysis of tail blood for 60 d post-infection, or until parasites were detected. Mice were removed from the experiment once parasites were detected in the blood. […] Efficacy PK blood samples were collected from three of the five mice prior to dose 7, and at 1 h and 6 h post-dose."}, "[4]": {"system": "human lymphocytes CRL-8155", "assay": "Cytotoxicity against CRL-8155 cells", "quoted_text": "The selectivity of each compound for the parasite over each of the two cell lines was calculated."}, "human hepatocytes HepG2": {"system": "human hepatocytes HepG2", "assay": "Cytotoxicity against HepG2 cells"}, "[5]": {"assay": "Rat pharmacokinetics, intravenous administration", "type": "in vivo", "parameters": "AUC(0-inf): unit not given here", "details": "5 mg/kg; for AUC(0-inf) / Cmax / half-life / clearance / Vd: rat, iv; for Cmax / half-life / clearance / Vd: plasma", "experimental": "as §1"}, "[6]": {"assay": "Efficacy PK blood samples, chronic model", "type": "in vivo, mouse", "details": "50 mg/kg po b.i.d.", "experimental": "In a model of the chronic phase of HAT, compound 1 was administered to five mice infected with T. b. brucei TREU667 at 50 mg/kg/po b.i.d.×10 days, beginning 21 days post-infection. […] Efficacy PK blood samples were collected from three of the five mice prior to dose 15, and at 1 h and 6 h post-dose. Average plasma levels of the test compound were 15.8±8.7 μM (pre-dose), […] (1 h), and 26.7±7.1 μM (6 h). Compound 1 attained 5/5 cures as determined by the absence of detectable parasitemia in any of the treated mice through 180 days post-infection (FIG. 2). No mice receiving vehicle alone had spontaneous cures."}}, "note": "Values joined by “and” are separate entries in the source; they are usually repeats but may differ in a detail not shown here. Equal values may be shown once. Read-outs that look alike come from different tables or passages of the source."}
{"smiles": "O=C(Nc1ccc2sc(-c3ccc(F)c(F)c3)nc2c1)N1CC[C@H](F)C1", "note": "[Compound 1, (S)-2-(3,4-Difluorophenyl)-5-(3-fluoro-N-pyrrolidylamido)benzothiazole]", "values": [{"measurement": "Average plasma levels", "setting": "[1]; 1 h post dose 7", "value": "18.6 ± 7.2", "unit": "µM"}, {"measurement": "Average plasma levels", "setting": "[1]; 6 h post dose 7", "value": "15.0 ± 4.2", "unit": "µM"}, {"measurement": "Average plasma levels", "setting": "[1]; prior to dose 7 (pre-dose)", "value": "9.1 ± 7.6", "unit": "µM"}, {"measurement": "EC50", "setting": "Plasmodium falciparum", "value": 16.7, "unit": "µM"}, {"measurement": "mice cured (cures)", "setting": "T. b. brucei TREU667", "value": "5 of 5 and 5/5"}, {"measurement": "Apparent BA", "setting": "[2]; Mean ± SEM (n = 2)", "value": 116.85, "unit": "%"}, {"measurement": "Apparent BA", "setting": "[2]; Rat 3", "value": 110.29, "unit": "%"}, {"measurement": "Apparent BA", "setting": "[2]; Rat 4", "value": 123.40, "unit": "%"}, {"measurement": "AUC(0-inf)", "setting": "[2]; Mean ± SEM (n = 2)", "value": 6270}, {"measurement": "Cmax", "setting": "[2]; Mean ± SEM (n = 2)", "value": 8.92, "unit": "µM"}, {"measurement": "Tmax", "setting": "[2]; Mean ± SEM (n = 2)", "value": 7, "unit": "h"}, {"measurement": "AUC(0-inf)", "setting": "[2]; Rat 3", "value": 5770}, {"measurement": "Cmax", "setting": "[2]; Rat 3", "value": 7.31, "unit": "µM"}, {"measurement": "Tmax", "setting": "[2]; Rat 3", "value": 8, "unit": "h"}, {"measurement": "AUC(0-inf)", "setting": "[2]; Rat 4", "value": 6770}, {"measurement": "Cmax", "setting": "[2]; Rat 4", "value": 10.5, "unit": "µM"}, {"measurement": "Tmax", "setting": "[2]; Rat 4", "value": 6, "unit": "h"}, {"measurement": "mice cured (cures)", "setting": "[3]", "value": "5 of 5 and 5/5"}, {"measurement": "toxicity to the CRL-8155 cells (in words)", "setting": "[4]", "value": "no detectable toxicity"}, {"measurement": "EC50", "setting": "[4]; read-out: CRL-8155 EC50, concentration required to inhibit growth by 50%, human lymphoblasts", "value": "> 50", "unit": "µM"}, {"measurement": "EC90", "setting": "[4]; read-out: CRL-8155 EC90, concentration required to inhibit growth by 90%, human lymphoblasts", "value": "> 50", "unit": "µM"}, {"measurement": "toxicity to the HepG2 cells (in words)", "setting": "human hepatocytes HepG2", "value": "no detectable toxicity"}, {"measurement": "EC50", "setting": "human hepatocytes HepG2; Homo sapiens, HepG2, read-out: HepG2 EC50", "value": "> 50", "unit": "µM"}, {"measurement": "EC90", "setting": "human hepatocytes HepG2; read-out: HepG2 EC90, concentration required to inhibit growth by 90%, human hepatocytes", "value": "> 50", "unit": "µM"}, {"measurement": "Tmax", "setting": "[5]; Mean ± SEM (n = 2)", "value": 5, "unit": "min"}, {"measurement": "Tmax", "setting": "[5]; Rat 2", "value": 5, "unit": "min"}, {"measurement": "Tmax", "setting": "[5]; in vivo, Rat 1, read-out: Tmax (converted)", "value": 5, "unit": "min"}, {"measurement": "AUC(0-inf)", "setting": "[5]; in vivo, Mean ± SEM (n = 2)", "value": 1440}, {"measurement": "AUC(0-inf)", "setting": "[5]; in vivo, Rat 1", "value": 1380}, {"measurement": "AUC(0-inf)", "setting": "[5]; in vivo, Rat 2", "value": 1500}, {"measurement": "Cmax", "setting": "[5]; Mean ± SEM (n = 2)", "value": 11.7, "unit": "µM"}, {"measurement": "half-life", "setting": "[5]; Mean ± SEM (n = 2), read-out: Apparent T1/2 (min) for steady state", "value": 96.7, "unit": "min"}, {"measurement": "half-life", "setting": "[5]; Mean ± SEM (n = 2), read-out: Apparent T1/2 (min) for terminal phase", "value": 96.7, "unit": "min"}, {"measurement": "clearance", "setting": "[5]; Mean ± SEM (n = 2), read-out: Plasma CL", "value": 9.35, "unit": "mL/min/kg"}, {"measurement": "Vd", "setting": "[5]; Mean ± SEM (n = 2), read-out: Plasma Vz", "value": 0.76, "unit": "L/kg"}, {"measurement": "Vd", "setting": "[5]; Mean ± SEM, read-out: Plasma Vss", "value": 1.31, "unit": "L/kg"}, {"measurement": "Cmax", "setting": "[5]; Rat 1", "value": 12.1, "unit": "µM"}, {"measurement": "half-life", "setting": "[5]; Rat 1, read-out: Apparent T1/2 (min) for steady state", "value": 88.5, "unit": "min"}, {"measurement": "half-life", "setting": "[5]; Rat 1, read-out: Apparent T1/2 (min) for terminal phase", "value": 88.5, "unit": "min"}, {"measurement": "clearance", "setting": "[5]; Rat 1, read-out: Plasma CL", "value": 10.3, "unit": "mL/min/kg"}, {"measurement": "Vd", "setting": "[5]; Rat 1, read-out: Plasma Vss", "value": 1.32, "unit": "L/kg"}, {"measurement": "Vd", "setting": "[5]; Rat 1, read-out: Plasma Vz", "value": 0.882, "unit": "L/kg"}, {"measurement": "Cmax", "setting": "[5]; Rat 2", "value": 11.3, "unit": "µM"}, {"measurement": "half-life", "setting": "[5]; Rat 2, read-out: Apparent T1/2 (min) for steady state", "value": 105, "unit": "min"}, {"measurement": "half-life", "setting": "[5]; Rat 2, read-out: Apparent T1/2 (min) for terminal phase", "value": 105, "unit": "min"}, {"measurement": "clearance", "setting": "[5]; Rat 2, read-out: Plasma CL", "value": 8.38, "unit": "mL/min/kg"}, {"measurement": "Vd", "setting": "[5]; Rat 2, read-out: Plasma Vss", "value": 1.3, "unit": "L/kg"}, {"measurement": "Vd", "setting": "[5]; Rat 2, read-out: Plasma Vz", "value": 0.639, "unit": "L/kg"}, {"measurement": "Average plasma levels", "setting": "[6]; 1 h post dose 15", "value": "23.1 ± 603", "unit": "µM"}, {"measurement": "Average plasma levels", "setting": "[6]; 6 h post dose 15", "value": "26.7 ± 7.1", "unit": "µM"}, {"measurement": "Average plasma levels", "setting": "[6]; prior to dose 15 (pre-dose)", "value": "15.8 ± 8.7", "unit": "µM"}]}
